In the supplement of paper PMC10307832:

Experiments:
Test in all cases: relative viability (nuclei count vs DMSO), 5 days (fraction); higher = more cells survive
Pazopanib + Navitoclax = compound: Cc1ccc(Nc2nccc(N(C)c3ccc4c(C)n(C)nc4c3)n2)cc1S(N)(=O)=O [Pazopanib] + CC1(C)CCC(c2ccc(Cl)cc2)=C(CN2CCN(c3ccc(C(=O)NS(=O)(=O)c4ccc(N[C@H](CCN5CCOCC5)CSc5ccccc5)c(S(=O)(=O)C(F)(F)F)c4)cc3)CC2)C1 [Navitoclax] (partner 0.5 µM)
How it was run: (§1)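 The day after seeding in 1536-well plates, lung cancer cell lines were treated by pin tool with a single drug, or with a fixed anchor-drug dose together with five library-drug doses (not always all listed) in √10 steps. After 5 days, a combined fix-and-stain solution (final 0.05% Triton X-100, 1% formaldehyde, 1 ug/ml Hoechst) was added. Nuclei counted on 4× images gave relative viability as treated counts over vehicle counts, reported as the median of duplicate plates.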

Pazopanib + Luminespib = compound: Cc1ccc(Nc2nccc(N(C)c3ccc4c(C)n(C)nc4c3)n2)cc1S(N)(=O)=O [Pazopanib] + CCNC(=O)c1noc(-c2cc(C(C)C)c(O)cc2O)c1-c1ccc(CN2CCOCC2)cc1 [Luminespib] (partner 0.01 µM)
How it was run: as §1

Pazopanib + Dasatinib = compound: Cc1ccc(Nc2nccc(N(C)c3ccc4c(C)n(C)nc4c3)n2)cc1S(N)(=O)=O [Pazopanib] + Cc1nc(Nc2ncc(C(=O)Nc3c(C)cccc3Cl)s2)cc(N2CCN(CCO)CC2)n1 [Dasatinib] (partner 0.075 µM)
How it was run: as §1

Pazopanib + AZD7762 = compound: Cc1ccc(Nc2nccc(N(C)c3ccc4c(C)n(C)nc4c3)n2)cc1S(N)(=O)=O [Pazopanib] + NC(=O)Nc1cc(-c2cccc(F)c2)sc1C(=O)N[C@H]1CCCNC1 [AZD7762] (partner 0.2 µM)
How it was run: as §1

| Cell Line | relative viability (Pazopanib + Navitoclax; first compound 0.01 µM) | relative viability (Pazopanib + Navitoclax; first compound 0.03162 µM) | relative viability (Pazopanib + Navitoclax; first compound 0.1 µM) | relative viability (Pazopanib + Navitoclax; first compound 0.3162 µM) | relative viability (Pazopanib + Navitoclax; first compound 1 µM) | relative viability (Pazopanib + Luminespib; first compound 0.01 µM) | relative viability (Pazopanib + Luminespib; first compound 0.03162 µM) | relative viability (Pazopanib + Luminespib; first compound 0.1 µM) | relative viability (Pazopanib + Luminespib; first compound 0.3162 µM) | relative viability (Pazopanib + Luminespib; first compound 1 µM) | relative viability (Pazopanib + Dasatinib; first compound 0.01 µM) | relative viability (Pazopanib + Dasatinib; first compound 0.03162 µM) | relative viability (Pazopanib + Dasatinib; first compound 0.1 µM) | relative viability (Pazopanib + Dasatinib; first compound 0.3162 µM) | relative viability (Pazopanib + Dasatinib; first compound 1 µM) | relative viability (Pazopanib + AZD7762; first compound 0.01 µM) | relative viability (Pazopanib + AZD7762; first compound 0.03162 µM) | relative viability (Pazopanib + AZD7762; first compound 0.1 µM) | relative viability (Pazopanib + AZD7762; first compound 0.3162 µM) | relative viability (Pazopanib + AZD7762; first compound 1 µM) |
| --- | --- | --- | --- | --- | --- | --- | --- | --- | --- | --- | --- | --- | --- | --- | --- | --- | --- | --- | --- | --- |
| NCI-H1437 | 1.11 | 1.06 | 1.07 | 0.985 | 1.08 | 1.25 | 1.16 | 1.13 | 1.11 | 1.07 | 0.399 | 0.465 | 0.353 | 0.396 | 0.723 | 1.05 | 1.13 | 1.19 | 1.03 | 1.03 |
| NCI-H1651 | 1.1 | 1.16 | 1.17 | 1.12 | 1.16 | 0.853 | 0.869 | 0.785 | 0.741 | 0.878 | 0.371 | 0.46 | 0.397 | 0.436 | 0.5 | 0.438 | 0.451 | 0.484 | 0.437 | 0.435 |
| NCI-H1666 | 1.06 | 0.975 | 0.926 | 1.22 | 1.01 | 1.03 | 1.08 | 0.99 | 1.06 | 1.06 | 0.854 | 0.833 | 0.801 | 0.864 | 0.772 | 0.871 | 0.828 | 0.788 | 0.823 | 0.848 |
| NCI-H1734 | 0.796 | 0.795 | 0.854 | 0.875 | 0.901 | 0.18 | 0.207 | 0.182 | 0.179 | 0.208 | 0.387 | 0.471 | 0.458 | 0.459 | 0.478 | 0.519 | 0.561 | 0.555 | 0.689 | 0.623 |
| NCI-H1755 | 0.852 | 0.937 | 1.01 | 1 | 0.991 | 0.422 | 0.42 | 0.261 | 0.448 | 0.527 | 0.333 | 0.398 | 0.433 | 0.384 | 0.411 | 0.434 | 0.433 | 0.453 | 0.42 | 0.439 |
| NCI-H1792 | – | 0.62 | 0.58 | 0.627 | 0.569 | – | 0.394 | 0.476 | 0.423 | 0.422 | – | 0.728 | 0.681 | 0.834 | 0.774 | – | 0.704 | 0.701 | 0.67 | 0.662 |
| NCI-H1793 | – | 0.421 | 0.387 | 0.463 | 0.542 | – | 0.235 | 0.198 | 0.186 | 0.235 | – | 0.357 | 0.412 | 0.372 | 0.533 | – | 0.674 | 0.481 | 0.593 | 0.44 |
| NCI-H1915 | 0.821 | 0.782 | 0.78 | 0.768 | 0.729 | 0.871 | 0.805 | 0.889 | 0.701 | 0.699 | 0.253 | 0.319 | 0.321 | 0.318 | 0.402 | 0.716 | 0.658 | 0.667 | 0.68 | 0.616 |
| NCI-H1944 | 0.942 | 0.997 | 1.09 | 1.05 | 1.08 | – | 0.784 | 0.771 | 0.86 | 0.857 | – | 0.226 | 0.226 | 0.237 | 0.247 | 0.442 | 0.504 | 0.595 | 0.571 | 0.555 |
| NCI-H1975 | 1 | 1.2 | 1.17 | 1.12 | 1.02 | 0.157 | 0.326 | 0.275 | 0.272 | 0.331 | 0.371 | 0.359 | 0.336 | 0.415 | 0.359 | 0.612 | 0.667 | 0.637 | 0.76 | 0.692 |
| NCI-H1993 | 0.734 | 0.735 | 0.988 | 1.01 | 0.889 | – | 0.728 | 0.885 | 0.885 | 0.913 | – | 0.6 | 0.542 | 0.588 | 0.582 | – | 0.789 | 0.734 | 0.883 | 0.645 |
| NCI-H2085 | 1.18 | 1.22 | 1.26 | 1.15 | 1.31 | 0.461 | 0.41 | 0.5 | 0.434 | 0.425 | 0.219 | 0.255 | 0.225 | 0.241 | 0.265 | 0.98 | 0.988 | 0.928 | 0.952 | 1.06 |
| NCI-H2087 | 1.03 | 1.04 | 1.1 | 1.01 | 0.8 | 0.162 | 0.174 | 0.171 | 0.165 | 0.159 | 0.743 | 0.989 | 0.929 | 1.01 | 0.72 | 1.36 | 1.23 | 1.47 | 1.18 | 1.12 |
| NCI-H2126 | 0.798 | 0.779 | 0.848 | 0.817 | 0.881 | 0.93 | 0.928 | 0.903 | 0.846 | 0.946 | 0.528 | 0.528 | 0.607 | 0.594 | 0.615 | 0.963 | 0.947 | 1.07 | 0.959 | 1.04 |
| NCI-H2170 | 0.519 | 0.586 | 0.752 | 0.542 | 0.631 | 0.675 | 0.766 | 0.712 | 0.532 | 0.627 | 0.536 | 0.572 | 0.537 | 0.511 | 0.639 | 0.744 | 0.967 | 0.94 | 0.896 | 0.815 |
| NCI-H2347 | 0.722 | 0.805 | 0.836 | 0.842 | 0.858 | 0.299 | 0.453 | 0.898 | 0.309 | 0.471 | 0.27 | 0.307 | 0.303 | 0.353 | 0.331 | 0.682 | 0.711 | 0.773 | 0.822 | 0.787 |
| NCI-H2405 | 0.903 | 0.985 | 1.05 | 1.27 | 1.07 | 0.728 | 0.837 | 0.821 | 0.815 | 0.73 | 0.222 | 0.227 | 0.147 | 0.256 | 0.249 | 0.718 | 0.772 | 0.702 | 0.751 | 0.74 |
| NCI-H3122 | 1.09 | 1.05 | 1.05 | 1.08 | 1.13 | 0.0969 | 0.0909 | 0.106 | 0.0886 | 0.0721 | 0.815 | 0.895 | 0.756 | 0.785 | 0.5 | 0.962 | 0.952 | 1.1 | 0.95 | 0.987 |
| PC-3 [JPC-3] | 0.762 | 0.794 | 0.904 | 0.723 | 0.793 | 0.784 | 0.59 | 0.65 | 0.69 | 0.65 | 0.991 | 0.939 | 1.11 | 0.939 | 0.983 | – | 0.742 | 0.725 | 0.926 | 0.937 |
| PC-14 | 1.06 | 1.06 | 1.09 | 0.954 | 0.948 | 0.155 | 0.177 | 0.173 | 0.177 | 0.142 | 0.27 | 0.241 | 0.288 | 0.267 | 0.266 | 0.422 | 0.328 | 0.268 | 0.372 | 0.426 |
| RERF-LC-KJ | 0.906 | 1.01 | 1.06 | 0.879 | 1.04 | 1.31 | 1.36 | 1.29 | 1.23 | 1.23 | 0.836 | 0.773 | 0.915 | 0.722 | 0.765 | 0.796 | 0.915 | 0.916 | 1.02 | 0.992 |
